Values joined by “and” are separate entries in the source; they are usually repeats but may differ in a detail not shown here. Equal values may be shown once. Toxic doses and inconclusive results are not listed. Rule as the data show it: active = T/C of 150% or more; inactive = T/C below 125%.
Test system: L1210 leukemia ip in BDF1 mice, survival T/C
Experiment: NCI In Vivo Anticancer Drug Screen. Data for tumor model L1210 Leukemia (intraperitoneal) in B6D2F1 (BDF1) mice
Settings: endpoint: mean survival time, higher = longer survival
In short: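 Antitumor effect is assessed in tumor-bearing animals. Survival in the compound arm is compared with a vehicle-dosed control arm and expressed as their quotient.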

[1] = dose: 100.0 mg/kg/injection, schedule: Q01DX001 (ip), vehicle: saline
[2] = dose: 200.0 mg/kg/injection, schedule: Q01DX001 (ip), vehicle: saline
[3] = dose: 400.0 mg/kg/injection, schedule: Q01DX001 (ip), vehicle: saline
[4] = dose: 100.0 mg/kg/injection, schedule: Q04DX003 (ip), vehicle: Klucel (hydroxypropylcellulose) (HPC)
[5] = dose: 400.0 mg/kg/injection, schedule: Q04DX003 (ip), vehicle: Klucel (hydroxypropylcellulose) (HPC)
[6] = dose: 100.0 mg/kg/injection, schedule: Q04DX003 (ip), vehicle: saline with Tween-80
[7] = dose: 200.0 mg/kg/injection, schedule: Q04DX003 (ip), vehicle: saline with Tween-80
[8] = dose: 400.0 mg/kg/injection, schedule: Q04DX003 (ip), vehicle: saline with Tween-80
[9] = dose: 100.0 mg/kg/injection, schedule: Q01DX001 (ip), vehicle: carboxymethylcellulose (CMC)
[10] = dose: 200.0 mg/kg/injection, schedule: Q01DX001 (ip), vehicle: carboxymethylcellulose (CMC)
[11] = dose: 400.0 mg/kg/injection, schedule: Q01DX001 (ip), vehicle: carboxymethylcellulose (CMC)
[12] = dose: 100.0 mg/kg/injection, schedule: Q01DX001 (ip), vehicle: other
[13] = dose: 200.0 mg/kg/injection, schedule: Q01DX001 (ip), vehicle: other
[14] = dose: 400.0 mg/kg/injection, schedule: Q01DX001 (ip), vehicle: other
[15] = dose: 50.0 mg/kg/injection, schedule: Q01DX009 (ip), vehicle: saline with Tween-80
[16] = dose: 100.0 mg/kg/injection, schedule: Q01DX009 (ip), vehicle: saline with Tween-80
[17] = dose: 50.0 mg/kg/injection, schedule: Q01DX009 (ip), vehicle: Klucel (hydroxypropylcellulose) (HPC)
[18] = dose: 100.0 mg/kg/injection, schedule: Q01DX009 (ip), vehicle: Klucel (hydroxypropylcellulose) (HPC)
[19] = dose: 200.0 mg/kg/injection, schedule: Q01DX009 (ip), vehicle: Klucel (hydroxypropylcellulose) (HPC)
[20] = dose: 50.0 mg/kg/injection, schedule: Q01DX001 (ip), vehicle: Klucel (hydroxypropylcellulose) (HPC)

Measured: T/C

Nc1cccc(C(=O)Nc2ccc(S(=O)(=O)F)cc2)c1
inactive: [1] 107 % of control | [2] 106 % of control | [3] 112 % of control

S=C(N/N=C/c1ccc2c(c1)CCC2)Nc1ccccc1
inactive: [4] 103 % of control | dose: 200.0 mg/kg/injection, schedule: Q04DX003 (ip), vehicle: Klucel (hydroxypropylcellulose) (HPC) 92 % of control | [5] 100 % of control

O=C(C1C2C=CC(CC2)C1C(=O)N1CCCCC1)N1CCCCC1 (stereo not drawn)
inactive: [6] 96 % of control | [7] 100 % of control | [8] 96 % of control

CCC1(C(C)C)SC(N)=NC1=O (stereo not drawn)
inactive: [9] 102 % of control | [10] 94 % of control | [11] 96 % of control

COc1cc(Cl)ccc1NC(=O)C(O)C(O)C(O)C(O)CO (stereo not drawn)
inactive: [12] 97 % of control | dose: 100.0 mg/kg/injection, schedule: Q01DX009 (ip), vehicle: other 100 % of control and 103 % of control | dose: 100.0 mg/kg/injection, schedule: Q04DX002 (ip), vehicle: other 98 % of control and 103 % of control | dose: 100.0 mg/kg/injection, schedule: Q04DX003 (ip), vehicle: carboxymethylcellulose (CMC) 103 % of control | [13] 90 % of control | dose: 200.0 mg/kg/injection, schedule: Q01DX009 (ip), vehicle: other 94 % of control and 97 % of control | dose: 200.0 mg/kg/injection, schedule: Q04DX002 (ip), vehicle: other 98 % of control and 92 % of control | dose: 200.0 mg/kg/injection, schedule: Q04DX003 (ip), vehicle: carboxymethylcellulose (CMC) 100 % of control | [14] 101 % of control | dose: 400.0 mg/kg/injection, schedule: Q01DX009 (ip), vehicle: other 95 % of control and 97 % of control | dose: 400.0 mg/kg/injection, schedule: Q04DX002 (ip), vehicle: other 103 % of control and 113 % of control | dose: 400.0 mg/kg/injection, schedule: Q04DX003 (ip), vehicle: carboxymethylcellulose (CMC) 103 % of control

COC(=O)CCC(=O)/C=C1/Nc2ccccc2C1=O
inactive: [6] 92 % of control | [7] 95 % of control | [8] 90 % of control

Cc1ccc(S(=O)(=O)OC2CCCCC2c2ccccc2C)cc1 (stereo not drawn)
inactive: dose: 100.0 mg/kg/injection, schedule: Q01DX001 (ip), vehicle: steriod suspending solution 105 % of control | dose: 200.0 mg/kg/injection, schedule: Q01DX001 (ip), vehicle: steriod suspending solution 112 % of control | dose: 400.0 mg/kg/injection, schedule: Q01DX001 (ip), vehicle: steriod suspending solution 98 % of control

Cc1ccc(S(=O)(=O)/C=C(\I)c2ccc([N+](=O)[O-])cc2)cc1
inactive: dose: 25.0 mg/kg/injection, schedule: Q01DX009 (ip), vehicle: saline with Tween-80 96 % of control | [15] 91 % of control | [1] 97 % of control | [16] 98 % of control | [2] 95 % of control

CCN=C1C=C/C(=C(/c2ccc(NCC)c(C)c2)c2cc(O)c(S(=O)(=O)O)cc2S(=O)(=O)O)C=C1C
inactive: dose: 50.0 mg/kg/injection, schedule: Q01DX009 (ip), vehicle: saline 97 % of control | dose: 100.0 mg/kg/injection, schedule: Q01DX009 (ip), vehicle: saline 97 % of control | dose: 200.0 mg/kg/injection, schedule: Q01DX009 (ip), vehicle: saline 104 % of control

COC(=O)C1=C(C)NC(=S)NC1c1ccco1 (stereo not drawn)
inactive: [6] 95 % of control | [7] 97 % of control | [8] 97 % of control

N#CCCN(CCCN1CCOCC1)C(=S)Nc1cccc(C(F)(F)F)c1
inactive: dose: 100.0 mg/kg/injection, schedule: Q04DX002 (ip), vehicle: saline with Tween-80 92 % of control | dose: 400.0 mg/kg/injection, schedule: Q04DX002 (ip), vehicle: saline with Tween-80 100 % of control

CC(=O)OCC(C)CC/C(=N\O)C(C)C1/C(=N/O)CC2C=C3CC(OC(C)=O)CCC3(C)CC21C (stereo not drawn)
inactive: [17] 97 % of control | [18] 91 % of control | [19] 91 % of control

CCCCCSP(SCCCCC)c1ccccc1
inactive: [18] 92 % of control | [19] 94 % of control

CCN(CC)C(=O)c1ccccc1C(=O)O
inactive: [18] 94 % of control | [19] 92 % of control | dose: 400.0 mg/kg/injection, schedule: Q01DX009 (ip), vehicle: Klucel (hydroxypropylcellulose) (HPC) 92 % of control

CC1OC2CCCCC2O1 (stereo not drawn)
inactive: [15] 97 % of control | [16] 97 % of control | dose: 200.0 mg/kg/injection, schedule: Q01DX009 (ip), vehicle: saline with Tween-80 94 % of control

[O-]/[N+](=C\c1ccccc1)c1ccc(Cl)cc1
inactive: dose: 75.0 mg/kg/injection, schedule: Q01DX001 (ip), vehicle: saline 96 % of control | dose: 150.0 mg/kg/injection, schedule: Q01DX001 (ip), vehicle: saline 95 % of control | dose: 300.0 mg/kg/injection, schedule: Q01DX001 (ip), vehicle: saline 91 % of control

CC(C)=C1C2CCC1NN2
inactive: [20] 108 % of control

CNC(=O)n1ncc2ccc([N+](=O)[O-])cc21
inactive: [1] 107 % of control | [2] 107 % of control | [3] 102 % of control

c1ccc([C]([Hg][C](=C(c2ccccc2)c2ccccc2)c2ccccc2)=C(c2ccccc2)c2ccccc2)cc1
inactive: [20] 95 % of control | dose: 100.0 mg/kg/injection, schedule: Q01DX001 (ip), vehicle: Klucel (hydroxypropylcellulose) (HPC) 88 % of control | dose: 200.0 mg/kg/injection, schedule: Q01DX001 (ip), vehicle: Klucel (hydroxypropylcellulose) (HPC) 90 % of control

COc1cc2c(cc1OC)C1CC(=O)CCN1CC2 (stereo not drawn)
inactive: [19] 101 % of control

Cc1cc(NC(=O)Oc2ccccc2)ccc1S(=O)(=O)F
inactive: dose: 75.0 mg/kg/injection, schedule: Q01DX001 (ip), vehicle: steriod suspending solution 102 % of control | dose: 150.0 mg/kg/injection, schedule: Q01DX001 (ip), vehicle: steriod suspending solution 96 % of control | dose: 300.0 mg/kg/injection, schedule: Q01DX001 (ip), vehicle: steriod suspending solution 98 % of control

O=Cc1cc(=O)[nH]c(=O)[nH]1
inactive: dose: 50.0 mg/kg/injection, schedule: Q01DX001 (ip), vehicle: saline 109 % of control | [1] 109 % of control | [2] 105 % of control | [3] 97 % of control

Oc1ccc(Br)cc1Sc1cc(Br)ccc1O
inactive: [9] 100 % of control | [1] 97 % of control | [10] 103 % of control | [2] 95 % of control | [11] 95 % of control | [3] 95 % of control

COc1ccccc1C1CCCCC1=O (stereo not drawn)
inactive: [12] 105 % of control | [13] 96 % of control | [14] 89 % of control

OC(CF)C(O)C(O)C(O)CF (stereo not drawn)
inactive: dose: 75.0 mg/kg/injection, schedule: Q01DX009 (ip), vehicle: saline 95 % of control | [1] 101 % of control | [2] 93 % of control | dose: 300.0 mg/kg/injection, schedule: Q01DX009 (ip), vehicle: saline 101 % of control | [3] 93 % of control

Cc1cc(N(CCOS(C)(=O)=O)CCOS(C)(=O)=O)ccc1C=Nc1ccc(C(=O)O)c(O)c1
inactive: dose: 4.0 mg/kg/injection, schedule: Q01DX009 (ip), vehicle: saline with Tween-80 111 % of control | dose: 6.0 mg/kg/injection, schedule: Q01DX009 (ip), vehicle: saline with Tween-80 119 % of control

COc1cc(OC)cc(C(N)=O)c1
inactive: [17] 88 % of control | [18] 97 % of control | [4] 86 % of control | [19] 91 % of control | [5] 86 % of control
